Assay results taken from patent US20240252454A1, “COMPOSITION COMPRISING AN INHIBITOR OF MITOCHONDRIAL TRANSCRIPTION” (LEAD DISCOVERY CENTER GMBH, priority 2021, published 2024).

How the values were obtained:
Experiment in all cases: SRB assay, IMT combined with inhibitor
Assay type in all cases: cell-based
NCIH460 = NCIH460 (lung); concentration series of the labelled inhibitor + fixed concentration of IMT (3S)-1-[(2R)-2-[4-(2-chloro-4-fluoro-phenyl)-2-oxo-chromen-7-yl]oxypropanoyl]piperidine-3-carboxylic acid (Table 3: 40 nM, 120 h); negative=synergistic, positive=antagonistic
Procedure, shortened: (§1)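 Cellular biomass changes were measured by sulforhodamine B staining in medium with 5 mM glucose, at least two independent replicates. Dilution series of MAPK pathway standard-of-care inhibitors were combined with a fixed 40 nM (3S)-1-[(2R)-2-[4-(2-chloro-4-fluoro-phenyl)-2-oxo-chromen-7-yl]oxypropanoyl]piperidine-3-carboxylic acid; growth followed over 120 h versus untreated cells.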

IMR90 = IMR90 (lung); concentration series of the labelled inhibitor + fixed concentration of IMT (3S)-1-[(2R)-2-[4-(2-chloro-4-fluoro-phenyl)-2-oxo-chromen-7-yl]oxypropanoyl]piperidine-3-carboxylic acid (Table 3: 40 nM, 120 h); negative=synergistic, positive=antagonistic
Procedure, shortened: as §1

LOVO = LOVO (colon); concentration series of the labelled inhibitor + fixed concentration of IMT (3S)-1-[(2R)-2-[4-(2-chloro-4-fluoro-phenyl)-2-oxo-chromen-7-yl]oxypropanoyl]piperidine-3-carboxylic acid (Table 3: 40 nM, 120 h); negative=synergistic, positive=antagonistic
Procedure, shortened: as §1

A375 = A375 (skin); concentration series of the labelled inhibitor + fixed concentration of IMT (3S)-1-[(2R)-2-[4-(2-chloro-4-fluoro-phenyl)-2-oxo-chromen-7-yl]oxypropanoyl]piperidine-3-carboxylic acid (Table 3: 40 nM, 120 h); negative=synergistic, positive=antagonistic
Procedure, shortened: as §1

HCT116 = HCT116 (colon); concentration series of the labelled inhibitor + fixed concentration of IMT (3S)-1-[(2R)-2-[4-(2-chloro-4-fluoro-phenyl)-2-oxo-chromen-7-yl]oxypropanoyl]piperidine-3-carboxylic acid (Table 3: 40 nM, 120 h); negative=synergistic, positive=antagonistic
Procedure, shortened: as §1

PANC1 = PANC1 (pancreas); concentration series of the labelled inhibitor + fixed concentration of IMT (3S)-1-[(2R)-2-[4-(2-chloro-4-fluoro-phenyl)-2-oxo-chromen-7-yl]oxypropanoyl]piperidine-3-carboxylic acid (Table 3: 40 nM, 120 h); negative=synergistic, positive=antagonistic
Procedure, shortened: as §1

HT1080 = HT1080 (connective tissue); concentration series of the labelled inhibitor + fixed concentration of IMT (3S)-1-[(2R)-2-[4-(2-chloro-4-fluoro-phenyl)-2-oxo-chromen-7-yl]oxypropanoyl]piperidine-3-carboxylic acid (Table 3: 40 nM, 120 h); negative=synergistic, positive=antagonistic
Procedure, shortened: as §1

BXPC3 = BXPC3 (pancreas); concentration series of the labelled inhibitor + fixed concentration of IMT (3S)-1-[(2R)-2-[4-(2-chloro-4-fluoro-phenyl)-2-oxo-chromen-7-yl]oxypropanoyl]piperidine-3-carboxylic acid (Table 3: 40 nM, 120 h); negative=synergistic, positive=antagonistic
Procedure, shortened: as §1

GRANTA-519 = GRANTA-519 (hematological); concentration series of the labelled inhibitor + fixed concentration of IMT (3S)-1-[(2R)-2-[4-(2-chloro-4-fluoro-phenyl)-2-oxo-chromen-7-yl]oxypropanoyl]piperidine-3-carboxylic acid (Table 3: 40 nM, 120 h); negative=synergistic, positive=antagonistic
Procedure, shortened: as §1

HT29 = HT29 (colon); concentration series of the labelled inhibitor + fixed concentration of IMT (3S)-1-[(2R)-2-[4-(2-chloro-4-fluoro-phenyl)-2-oxo-chromen-7-yl]oxypropanoyl]piperidine-3-carboxylic acid (Table 3: 40 nM, 120 h); negative=synergistic, positive=antagonistic
Procedure, shortened: as §1

COLO205 = COLO205 (colon); concentration series of the labelled inhibitor + fixed concentration of IMT (3S)-1-[(2R)-2-[4-(2-chloro-4-fluoro-phenyl)-2-oxo-chromen-7-yl]oxypropanoyl]piperidine-3-carboxylic acid (Table 3: 40 nM, 120 h); negative=synergistic, positive=antagonistic
Procedure, shortened: as §1

HEPG2 = HEPG2 (liver); concentration series of the labelled inhibitor + fixed concentration of IMT (3S)-1-[(2R)-2-[4-(2-chloro-4-fluoro-phenyl)-2-oxo-chromen-7-yl]oxypropanoyl]piperidine-3-carboxylic acid (Table 3: 40 nM, 120 h); negative=synergistic, positive=antagonistic
Procedure, shortened: as §1

SKMEL28 = SKMEL28 (skin); concentration series of the labelled inhibitor + fixed concentration of IMT (3S)-1-[(2R)-2-[4-(2-chloro-4-fluoro-phenyl)-2-oxo-chromen-7-yl]oxypropanoyl]piperidine-3-carboxylic acid (Table 3: 40 nM, 120 h); negative=synergistic, positive=antagonistic
Procedure, shortened: as §1

MHHES1 = MHHES1 (bone); concentration series of the labelled inhibitor + fixed concentration of IMT (3S)-1-[(2R)-2-[4-(2-chloro-4-fluoro-phenyl)-2-oxo-chromen-7-yl]oxypropanoyl]piperidine-3-carboxylic acid (Table 3: 40 nM, 120 h); negative=synergistic, positive=antagonistic
Procedure, shortened: as §1

O=C(c1ccc(F)c(F)c1Nc1ccc(I)cc1F)N1CC(O)([C@@H]2CCCCN2)C1 [Cobimetinib]
difference between the calculated combinatorial index (BLISS) and the observed combinatorial effect (NCIH460): −0.0338
difference between the calculated combinatorial index (BLISS) and the observed combinatorial effect (IMR90): −0.0073
difference between the calculated combinatorial index (BLISS) and the observed combinatorial effect (LOVO): −0.0754
difference between the calculated combinatorial index (BLISS) and the observed combinatorial effect (A375): 0.0443
difference between the calculated combinatorial index (BLISS) and the observed combinatorial effect (HCT116): −0.0279
difference between the calculated combinatorial index (BLISS) and the observed combinatorial effect (PANC1): 0.0747
difference between the calculated combinatorial index (BLISS) and the observed combinatorial effect (HT1080): −0.0482
difference between the calculated combinatorial index (BLISS) and the observed combinatorial effect (BXPC3): 0.0204
difference between the calculated combinatorial index (BLISS) and the observed combinatorial effect (GRANTA-519): −0.0008
difference between the calculated combinatorial index (BLISS) and the observed combinatorial effect (HT29): 0.0382
difference between the calculated combinatorial index (BLISS) and the observed combinatorial effect (COLO205): 0.0185
difference between the calculated combinatorial index (BLISS) and the observed combinatorial effect (HEPG2): −0.0133
difference between the calculated combinatorial index (BLISS) and the observed combinatorial effect (SKMEL28): −0.0040
difference between the calculated combinatorial index (BLISS) and the observed combinatorial effect (MHHES1): −0.0055

O=C(NOC[C@H](O)CO)c1ccc(F)c(F)c1Nc1ccc(I)cc1F [PD 0325901, (R)—N-(2,3-dihydroxypropoxy)-3,4-difluoro-2-((2-fluoro-4-iodophenyl)amino)benzamide]
difference between the calculated combinatorial index (BLISS) and the observed combinatorial effect (NCIH460): 0.0200
difference between the calculated combinatorial index (BLISS) and the observed combinatorial effect (IMR90): 0.0387
difference between the calculated combinatorial index (BLISS) and the observed combinatorial effect (LOVO): −0.0229
difference between the calculated combinatorial index (BLISS) and the observed combinatorial effect (A375): 0.0418
difference between the calculated combinatorial index (BLISS) and the observed combinatorial effect (HCT116): −0.0042
difference between the calculated combinatorial index (BLISS) and the observed combinatorial effect (PANC1): 0.1000
difference between the calculated combinatorial index (BLISS) and the observed combinatorial effect (HT1080): 0.0433
difference between the calculated combinatorial index (BLISS) and the observed combinatorial effect (BXPC3): 0.0495
difference between the calculated combinatorial index (BLISS) and the observed combinatorial effect (GRANTA-519): 0.0420
difference between the calculated combinatorial index (BLISS) and the observed combinatorial effect (HT29): 0.0786
difference between the calculated combinatorial index (BLISS) and the observed combinatorial effect (COLO205): 0.0261
difference between the calculated combinatorial index (BLISS) and the observed combinatorial effect (HEPG2): 0.0334
difference between the calculated combinatorial index (BLISS) and the observed combinatorial effect (SKMEL28): 0.0303
difference between the calculated combinatorial index (BLISS) and the observed combinatorial effect (MHHES1): 0.0437

Cn1cnc2c(F)c(Nc3ccc(Br)cc3Cl)c(C(=O)NOCCO)cc21 [Selumetinib]
difference between the calculated combinatorial index (BLISS) and the observed combinatorial effect (NCIH460): −0.0276
difference between the calculated combinatorial index (BLISS) and the observed combinatorial effect (IMR90): −0.0291
difference between the calculated combinatorial index (BLISS) and the observed combinatorial effect (LOVO): −0.0877
difference between the calculated combinatorial index (BLISS) and the observed combinatorial effect (A375): 0.0423
difference between the calculated combinatorial index (BLISS) and the observed combinatorial effect (HCT116): −0.0774
difference between the calculated combinatorial index (BLISS) and the observed combinatorial effect (PANC1): 0.0867
difference between the calculated combinatorial index (BLISS) and the observed combinatorial effect (HT1080): −0.0139
difference between the calculated combinatorial index (BLISS) and the observed combinatorial effect (BXPC3): −0.0219
difference between the calculated combinatorial index (BLISS) and the observed combinatorial effect (GRANTA-519): 0.0050
difference between the calculated combinatorial index (BLISS) and the observed combinatorial effect (HT29): 0.0236
difference between the calculated combinatorial index (BLISS) and the observed combinatorial effect (COLO205): 0.0142
difference between the calculated combinatorial index (BLISS) and the observed combinatorial effect (HEPG2): 0.0032
difference between the calculated combinatorial index (BLISS) and the observed combinatorial effect (SKMEL28): 0.0096
difference between the calculated combinatorial index (BLISS) and the observed combinatorial effect (MHHES1): 0.0218

CC(C)(C)c1nc(-c2cccc(NS(=O)(=O)c3c(F)cccc3F)c2F)c(-c2ccnc(N)n2)s1 [Dabrafenib]
difference between the calculated combinatorial index (BLISS) and the observed combinatorial effect (NCIH460): −0.0275
difference between the calculated combinatorial index (BLISS) and the observed combinatorial effect (IMR90): −0.0104
difference between the calculated combinatorial index (BLISS) and the observed combinatorial effect (LOVO): −0.0384
difference between the calculated combinatorial index (BLISS) and the observed combinatorial effect (A375): 0.0337
difference between the calculated combinatorial index (BLISS) and the observed combinatorial effect (HCT116): 0.0411
difference between the calculated combinatorial index (BLISS) and the observed combinatorial effect (PANC1): 0.0029
difference between the calculated combinatorial index (BLISS) and the observed combinatorial effect (HT1080): −0.1475
difference between the calculated combinatorial index (BLISS) and the observed combinatorial effect (BXPC3): 0.0251
difference between the calculated combinatorial index (BLISS) and the observed combinatorial effect (GRANTA-519): −0.0357
difference between the calculated combinatorial index (BLISS) and the observed combinatorial effect (HT29): 0.0360
difference between the calculated combinatorial index (BLISS) and the observed combinatorial effect (COLO205): −0.0114
difference between the calculated combinatorial index (BLISS) and the observed combinatorial effect (HEPG2): −0.1427
difference between the calculated combinatorial index (BLISS) and the observed combinatorial effect (SKMEL28): 0.0194
difference between the calculated combinatorial index (BLISS) and the observed combinatorial effect (MHHES1): −0.0230

Cc1cc(C(=O)NOCCO)c(Nc2ccc(I)cc2F)n(C)c1=O [AZD8330, 2-((2-Fluoro-4-iodophenyl)amino)-N-(2-hydroxyethoxy)-1,5-dimethyl-6-oxo-1,6-dihydropyridine-3-carboxamide]
difference between the calculated combinatorial index (BLISS) and the observed combinatorial effect (NCIH460): 0.0015
difference between the calculated combinatorial index (BLISS) and the observed combinatorial effect (IMR90): 0.0338
difference between the calculated combinatorial index (BLISS) and the observed combinatorial effect (LOVO): 0.0047
difference between the calculated combinatorial index (BLISS) and the observed combinatorial effect (A375): 0.0451
difference between the calculated combinatorial index (BLISS) and the observed combinatorial effect (HCT116): −0.0196
difference between the calculated combinatorial index (BLISS) and the observed combinatorial effect (PANC1): 0.0157
difference between the calculated combinatorial index (BLISS) and the observed combinatorial effect (HT1080): 0.0197
difference between the calculated combinatorial index (BLISS) and the observed combinatorial effect (BXPC3): 0.0756
difference between the calculated combinatorial index (BLISS) and the observed combinatorial effect (GRANTA-519): −0.0506
difference between the calculated combinatorial index (BLISS) and the observed combinatorial effect (HT29): 0.0488
difference between the calculated combinatorial index (BLISS) and the observed combinatorial effect (COLO205): 0.0127
difference between the calculated combinatorial index (BLISS) and the observed combinatorial effect (HEPG2): 0.0270
difference between the calculated combinatorial index (BLISS) and the observed combinatorial effect (SKMEL28): 0.0300
difference between the calculated combinatorial index (BLISS) and the observed combinatorial effect (MHHES1): 0.0682
